Results: ChEMBL document CHEMBL3259523, “Triazolo[4,5-d]pyrimidine Derivatives as Inhibitors of GCN2” (ACS Med Chem Lett, 2014)

Tests used:
eIF-2-alpha kinase GCN2 [1] = molecular target: T1, eIF-2-alpha kinase GCN2 (Homo sapiens, UniProt Q9P2K8); assay: Inhibition of GCN2 (unknown origin) using GFP-elF2a as substrate preincubated with substrate for 20 mins measured after 90 mins by Lanthascreen assay
eIF-2-alpha kinase GCN2 [2] = molecular target: T1, eIF-2-alpha kinase GCN2; assay: Inhibition of GCN2-mediated elF2alpha phosphorylation in human U2OS cells after 2 hrs by immunocytochemistry; format: cell-based

T1 sequence (Q9P2K8 whole entry): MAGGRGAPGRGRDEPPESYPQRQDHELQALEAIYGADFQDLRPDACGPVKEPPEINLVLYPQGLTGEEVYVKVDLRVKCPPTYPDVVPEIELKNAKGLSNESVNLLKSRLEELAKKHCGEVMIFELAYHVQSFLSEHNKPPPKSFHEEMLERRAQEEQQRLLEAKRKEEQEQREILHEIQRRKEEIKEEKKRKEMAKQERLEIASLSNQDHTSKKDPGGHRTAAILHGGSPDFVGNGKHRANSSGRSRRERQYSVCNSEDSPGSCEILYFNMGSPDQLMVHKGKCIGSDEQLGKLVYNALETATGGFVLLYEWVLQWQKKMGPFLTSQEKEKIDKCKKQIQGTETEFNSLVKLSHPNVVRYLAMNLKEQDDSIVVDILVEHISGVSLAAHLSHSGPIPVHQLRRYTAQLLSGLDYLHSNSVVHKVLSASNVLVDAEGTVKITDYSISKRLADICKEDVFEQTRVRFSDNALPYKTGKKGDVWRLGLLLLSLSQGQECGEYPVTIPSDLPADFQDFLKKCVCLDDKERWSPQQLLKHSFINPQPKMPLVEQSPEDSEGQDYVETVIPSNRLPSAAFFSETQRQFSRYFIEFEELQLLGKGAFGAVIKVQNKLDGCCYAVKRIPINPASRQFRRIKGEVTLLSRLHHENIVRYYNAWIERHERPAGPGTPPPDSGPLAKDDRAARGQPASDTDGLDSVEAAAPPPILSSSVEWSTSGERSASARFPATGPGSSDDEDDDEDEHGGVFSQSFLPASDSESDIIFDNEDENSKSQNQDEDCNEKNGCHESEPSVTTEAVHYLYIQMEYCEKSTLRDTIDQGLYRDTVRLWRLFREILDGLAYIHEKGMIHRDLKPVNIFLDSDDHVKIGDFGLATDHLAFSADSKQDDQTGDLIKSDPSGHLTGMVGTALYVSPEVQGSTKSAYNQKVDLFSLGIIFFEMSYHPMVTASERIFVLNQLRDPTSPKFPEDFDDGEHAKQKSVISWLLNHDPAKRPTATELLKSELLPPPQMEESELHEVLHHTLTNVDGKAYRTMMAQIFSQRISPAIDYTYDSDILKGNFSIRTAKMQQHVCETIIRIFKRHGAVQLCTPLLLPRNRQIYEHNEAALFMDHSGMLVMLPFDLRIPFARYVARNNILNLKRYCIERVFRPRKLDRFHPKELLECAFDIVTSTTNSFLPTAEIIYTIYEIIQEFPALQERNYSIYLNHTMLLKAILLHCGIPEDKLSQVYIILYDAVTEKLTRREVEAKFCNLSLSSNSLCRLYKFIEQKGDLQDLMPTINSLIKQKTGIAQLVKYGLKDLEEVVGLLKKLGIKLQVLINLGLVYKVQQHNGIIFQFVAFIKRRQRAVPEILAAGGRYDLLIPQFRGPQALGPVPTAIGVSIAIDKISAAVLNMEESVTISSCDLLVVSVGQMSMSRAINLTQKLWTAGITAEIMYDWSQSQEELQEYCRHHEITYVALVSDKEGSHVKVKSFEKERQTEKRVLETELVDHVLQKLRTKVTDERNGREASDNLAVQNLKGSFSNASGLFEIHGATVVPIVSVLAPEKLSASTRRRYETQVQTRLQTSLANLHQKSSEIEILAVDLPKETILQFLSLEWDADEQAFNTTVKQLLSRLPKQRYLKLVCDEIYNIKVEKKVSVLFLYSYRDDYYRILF

IC50 (eIF-2-alpha kinase GCN2 [1])	IC50 (eIF-2-alpha kinase GCN2 [2])	Structure (SMILES)
< 300 nM	< 300 nM	O[C@H]1CC[C@H](n2ccc(Nc3ncc4c(nnn4-c4ccc(Cl)c(F)c4)n3)n2)CC1
< 300 nM	< 300 nM	c1cc2cn[nH]c2cc1-n1nnc2nc(Nc3ccn(C4CCOCC4)n3)ncc21
< 300 nM	300 nM	CCn1ccc(Nc2ncc3c(nnn3-c3ccc(C(C)(C)OCCO)cc3)n2)n1
< 300 nM	< 300 nM	CCOc1ccc(-n2nnc3nc(Nc4ccn(CCCC5CCNCC5)n4)ncc32)cc1
